Data taken from patent US9493468B2, “Antifungal 5,6-dihydro-4H-pyrrolo[1,2-a][1,4]benzo-diazepines and 6H-pyrrolo[1,2-a][1,4]benzodiazepines substituted with heterocyclic derivatives” (Janssen Pharmaceutica NV, priority 2011, dated 2016).

Experiments:
Type in all cases: cell-based
[1] = test system: Scedosporium prolificans; test: Antifungal activity in vitro, resazurin growth inhibition: Scedosporium prolificans (IHEM21157); details: for IC50: Lomentospora prolificans, read-out: Inf. I: Scedosporium prolificans IHEM21157, pIC50 (converted)
Procedure: (§1) The standard susceptibility screen is performed in 96-well plates (U-bottom, Greiner Bio-One). Serial dilutions (2-fold or 4-fold) of 20 mM compound stock solutions are made in 100% DMSO, followed by an intermediate dilution step in water. These serial dilutions (10 μl) are then spotted onto test-plates that can be stored in the dark at 4° C. for a maximum period of 2 weeks. An adequate broad dose-range is included with 64 μM as the highest in-test concentration. The culture medium RPMI-1640 is supplemented with L-glutamine, 2% glucose and buffered with 3-(N-morpholino)-propanesulfonic acid (MOPS) at pH 7.0±0.1.
(§2) The different fungal species/isolates (Table 3a) are cryopreserved and 1/1000 diluted in medium just prior to use. A standard inoculum of 200 μl containing 10^3 colony-forming unit (cfu) is then added to each well. A positive control (100% growth=fungal culture without antifungal) and a negative control (0% growth ═RPMI-MOPS medium) are included on each plate. Optimal incubation time and temperature are dependent on the fungal species and vary from 24 h for yeasts (37° C.) to one week or more for dermatophytes (27° C.). Inhibition of fungal growth is measured after adding 10 μl of 0.005% (w/v) resazurin (Sigma Aldrich) to each well, based on the principle that living cells convert the non-fluorescent blue resazurin into the pink and fluorescent resorufin, allowing fluorimetric reading (λex 550 nm and λem 590 nm) after an additional incubation period (‘resa’ time mentioned in Table 3a).

[2] = test system: Rhizomucor miehei; test: Antifungal activity in vitro, resazurin growth inhibition: Rhizomucor miehei (IHEM13391); details: for IC50: read-out: Inf. K: Rhizomucor miehei IHEM13391, pIC50 (converted)
Procedure: as §1, §2

[3] = test system: Trichophyton rubrum; test: Antifungal activity in vitro, resazurin growth inhibition: Trichophyton rubrum (B68183); details: for IC50: read-out: Inf. C: Trichophyton rubrum B68183, pIC50 (converted)
Method in brief: (§3)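 Fungi (10^3 cfu/well) grown in RPMI-1640 with L-glutamine, 2% glucose, MOPS pH 7.0, against 2- or 4-fold compound dilutions up to 64 μM. Dermatophytes incubated one week or more at 27° C. Growth inhibition read fluorimetrically (λex 550, λem 590 nm) after resazurin addition and further incubation.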

[4] = test system: Rhizopus oryzae; test: Antifungal activity in vitro, resazurin growth inhibition: Rhizopus oryzae (IHEM5223); details: for IC50: Rhizopus arrhizus, read-out: Inf. J: Rhizopus oryzae IHEM5223, pIC50 (converted)
Procedure: as §1, §2

[5] = test system: Candida parapsilosis; test: Antifungal activity in vitro, resazurin growth inhibition: Candida parapsilosis (B66126); details: for IC50: Lodderomyces parapsilosis, read-out: Inf. D: Candida parapsilosis B66126, pIC50 (converted)
Method in brief: as §3

[6] = test system: Sporothrix schenkii; test: Antifungal activity in vitro, resazurin growth inhibition: Sporothrix schenkii (B62482); details: for IC50: read-out: Inf. A: Sporothrix schenkii B62482, pIC50 (converted)
Method in brief: as §3

[7] = test system: Aspergillus fumigatus; test: Antifungal activity in vitro, resazurin growth inhibition: Aspergillus fumigatus (B42928); details: for IC50: read-out: Inf. E: Aspergillus fumigatus B42928, pIC50 (converted)
Method in brief: as §3

[8] = test system: Trichophyton mentagrophytes; test: Antifungal activity in vitro, resazurin growth inhibition: Trichophyton mentagrophytes (B70554); details: for IC50: read-out: Inf. G: Trichophyton mentagrophytes B70554, pIC50 (converted)
Method in brief: as §3

[9] = test system: Cryptococcus neoformans; test: Antifungal activity in vitro, resazurin growth inhibition: Cryptococcus neoformans (B66663); details: for IC50: read-out: Inf. F: Cryptococcus neoformans B66663, pIC50 (converted)
Method in brief: as §3

[10] = test system: Microsporum canis; test: Antifungal activity in vitro, resazurin growth inhibition: Microsporum canis (B68128); details: for IC50: read-out: Inf. B: Microsporum canis B68128, pIC50 (converted)
Method in brief: as §3

[11] = test system: Scedosporium apiospermum; test: Antifungal activity in vitro, resazurin growth inhibition: Scedosporium apiospermum (IHEM3817); details: for IC50: read-out: Inf. H: Scedosporium apiospermum IHEM3817, pIC50 (converted)
Procedure: as §1, §2

| Inf. D: Candida parapsilosis B66126, pIC50 [5] | Inf. A: Sporothrix schenkii B62482, pIC50 [6] | Inf. G: Trichophyton mentagrophytes B70554, pIC50 [8] | Inf. F: Cryptococcus neoformans B66663, pIC50 [9] | Inf. H: Scedosporium apiospermum IHEM3817, pIC50 [11] | Compound | Inf. I: Scedosporium prolificans IHEM21157, pIC50 [1] | Inf. K: Rhizomucor miehei IHEM13391, pIC50 [2] | Inf. C: Trichophyton rubrum B68183, pIC50 [3] | Inf. J: Rhizopus oryzae IHEM5223, pIC50 [4] | Inf. E: Aspergillus fumigatus B42928, pIC50 [7] | Inf. B: Microsporum canis B68128, pIC50 [10] | other results |
| --- | --- | --- | --- | --- | --- | --- | --- | --- | --- | --- | --- | --- |
| 5.12 | 5.17 | 6.40 | 5.28 | 5.68 | CC(C)n1ccc(C2=NCc3c(Cl)cccc3-n3cccc32)cc1=O [Compound 70] | 6.38 | 4.52 | 6.99 | 5.50 | 6.00 | 6.36 |  |
| 4.92 | 4.44 | 6.18 | <4.19 | 6.29 | CCc1ccc(C2=NCc3c(Cl)cccc3-n3cccc32)cn1 [Compound 74] | 6.88 | <4.19 | 6.31 | <4.19 | 5.25 | 5.91 |  |
| <4.19 | 4.46 | 5.00 | 4.82 | 5.07 | CCc1ccc(C2=NCc3c(Cl)cc(Cl)cc3-n3cccc32)cn1 [Compound 76] | 5.46 | 4.49 | 5.75 | <4.19 | 4.72 | 6.34 |  |
| 5.70 | 5.70 | 7.07 | 5.30 | <4.19 | Clc1cccc2c1CN=C(c1cc3ccccc3o1)c1cccn1-2 [Compound 118] |  | <4.19 |  | <4.19 |  |  |  |
| <4 | 5.33 | 5.33 | 5.33 | 5.00 | Clc1ccc2c(c1)-n1cccc1C(c1cnc3ccccc3c1)=NC2 [Compound 206] | 6.00 |  | 6.00 |  | 5.33 | 5.00 |  |

Continued, compound first:

| Compound | Inf. D: Candida parapsilosis B66126, pIC50 [5] | Inf. A: Sporothrix schenkii B62482, pIC50 [6] | Inf. G: Trichophyton mentagrophytes B70554, pIC50 [8] | Inf. F: Cryptococcus neoformans B66663, pIC50 [9] | Inf. H: Scedosporium apiospermum IHEM3817, pIC50 [11] | Inf. I: Scedosporium prolificans IHEM21157, pIC50 [1] | Inf. K: Rhizomucor miehei IHEM13391, pIC50 [2] | Inf. C: Trichophyton rubrum B68183, pIC50 [3] | Inf. J: Rhizopus oryzae IHEM5223, pIC50 [4] | Inf. E: Aspergillus fumigatus B42928, pIC50 [7] | Inf. B: Microsporum canis B68128, pIC50 [10] | other results |
| --- | --- | --- | --- | --- | --- | --- | --- | --- | --- | --- | --- | --- |
| Cl.Clc1cccc2c1CNC(c1cc3ccccc3o1)c1cccn1-2 (racemic) [Compound 30] | 5.22 | 4.89 | 6.15 | <4.19 | 4.94 | <4.19 | <4.19 | 6.29 | <4.19 | 6.32 | 6.27 |  |
| Cc1cccc2c1CNC(c1cc3cc(Cl)ccc3o1)c1cccn1-2.Cl (racemic) [Compound 34] | <4.19 | <4.19 | 6.22 | <4.19 | <4.19 | 5.66 | <4.19 | 6.72 | <4.19 | <4.19 | 6.40 |  |
| Fc1ccc2oc(C3NCc4c(Cl)cccc4-n4cccc43)cc2c1 (racemic) [Compound 47] | <4.19 | <4.19 | 5.08 | <4.19 | 6.03 | 6.38 | 4.81 | 6.25 | <4.19 | 4.91 | 5.84 |  |
| Cc1cccc2c1-n1cccc1C(c1cc3ccccc3s1)NC2.Cl (racemic) [Compound 55] | <4.19 | 5.04 | 5.72 | 5.32 | 4.86 | 5.47 | <4.19 | 6.30 | <4.19 | 5.55 | 5.70 |  |
| Cc1cccc2c1CN=C(c1cc3ccccc3s1)c1cccn1-2 [Compound 2] |  |  |  |  |  |  |  |  |  |  |  | IC50 [1]: 1620 nM; IC50 [2]: > 64600 nM; IC50 [3]: 166 nM; IC50 [4]: > 64600 nM; IC50 [5]: > 64600 nM; IC50 [6]: 646 nM; IC50 [7]: 2000 nM; IC50 [8]: 427 nM; IC50 [9]: 2000 nM; IC50 [10]: 331 nM; IC50 [11]: 525 nM |
| Clc1cccc2c1CN=C(c1ccc3sccc3c1)c1cccn1-2 [Compound 9] |  |  |  |  |  |  |  |  |  |  |  | IC50 [1]: 39.8 nM; IC50 [2]: 2340 nM; IC50 [3]: 36.3 nM; IC50 [4]: > 64600 nM; IC50 [5]: 603 nM; IC50 [6]: 1660 nM; IC50 [7]: 12.9 nM; IC50 [8]: 97.7 nM; IC50 [9]: 646 nM; IC50 [10]: 107 nM; IC50 [11]: 550 nM |
